Experimental findings from patent publication US20230250095A1, “BENZIMIDAZOLE DERIVATIVES, PREPARATION METHOD THEREFOR AND MEDICAL USE THEREOF” (TUOJIE BIOTECH(SHANGHAI) CO., LTD., priority 2020, published 2023) are described below.

The structures appear in SMILES notation.

A word on the Tmax: it is the time at which the peak concentration occurs. As usually defined, the half-life is the time needed for the level to fall by half in the phase considered. Higher therefore signals slow decline. A word on the AUC(0-t): it is the area under the concentration-time curve up to a stated or last time point. Usually Cmax stands for the peak of the concentration-time curve. In general, Papp A→B refers to how fast a substance crosses the layer from the apical side. Low readings indicate slow passage, high ones fast passage.

Data set [1] is described as follows: In vivo pharmacokinetic experiment in rats, intragastric administration. The note with it: SD rats, 5 mg/kg. Here is the method: The drug concentrations in the plasma of the test animals (rats) at different time points after intragastric administration of the compound of the present disclosure were determined by an LC/MS/MS method. The pharmacokinetic behavior in rats of the compound of the present disclosure was studied and its pharmacokinetic profile was evaluated.
Male, healthy SD rats of SPF grade, 6-8 weeks old, 3 rats in each group.
Intragastric administration: a certain amount of compound was weighed and prepared into a 1 mg/mL white suspension by adding 0.5% by volume of hydroxypropyl methylcellulose, 0.1% by volume of tween 80 and 99.4% by volume of water.
SD rats were administered intragastrically with compound 4 or BLU-5937 at a dose of 5 mg/kg after fasting overnight.
Rats were administered intragastrically with the compound of the present disclosure. 0.2 mL of blood was collected from the jugular vein at 0.25 h, 0.5 h, 1 h, 2 h, 4 h, 8 h and 24 h after the administration, placed in a tube containing EDTA-K2, separated by centrifugation at 4° C. at 4000 rpm for 5 min to obtain plasma, which was stored at −75° C.
Determination of the content of the test compounds at different concentrations in the plasma of rats after intragastric administration: 50 μL of rat plasma at each time point after the administration was taken, 200 μL of a solution of internal standard dexamethasone (50 ng/mL) in acetonitrile was added thereto, and the mixture was vortexed for 30 s to be mixed well, centrifuged at 4° C. at 4700 rpm for 15 min. The supernatant of the plasma sample was subjected to 3-fold dilution with water, and 2.0 μL of the dilution was taken for LC/MS/MS analysis.

The nature of data set [2]: Caco-2 permeability assay. The class given is in vitro ADME. The note with it: human. Here is the method: The apparent permeability coefficient (Papp) of the analytical drug was determined by liquid chromatography-tandem mass spectrometry (LC/MS/MS) through a Caco-2 cell model.
The transfer rate of drug from the apical end to the basal end was determined. 108 μL of HBSS (25 mM HEPES, pH 7.4) containing 10 μM test compound was added to the apical end of the upper chamber of Transwell (purchased from Corning) containing Caco-2 cells (purchased from ATCC) at a density of 6.86×10^5 cells/cm^2, and meanwhile, 8 μL of the sample was added, as an initial dosing-end sample (A-B), to a new 96-well plate to which 72 μL of HBSS (25 mM HEPES, pH 7.4) and 240 μL of acetonitrile (containing 100 nM alprazolam, 200 nM caffeine and 100 nM tolbutamide) had been added, and the plate was vortexed at 1000 rpm for 10 min. 300 μL of HBSS (25 mM HEPES, pH 7.4) was added to the basal end.
The transfer rate of drug from the basal end to the apical end was determined. 308 μL of HBSS (25 mM HEPES, pH 7.4) containing 10 μM test compound was added to wells of the basal end of the plate, and meanwhile, 8 μL of the sample was added, as an initial dosing-end sample (B-A), to a new 96-well plate to which 72 μL of HBSS (25 mM HEPES, pH 7.4) and 240 μL of acetonitrile (containing 100 nM alprazolam, 200 nM caffeine and 100 nM tolbutamide) had been added. The plate was vortexed at 1000 rpm for 10 min, and 100 μL of HBSS (25 mM HEPES, pH 7.4) was added to the apical end.
The transfer rate from the apical end to the basal end and the transfer rate from the basal end to the apical end need to be determined simultaneously.
At the end of the transfer cycle, 8 μL of the sample was taken from the dosing end (apical end of A-B flow and basal end of B-A flow) and added to 72 μL of HBSS (25 mM HEPES, pH 7.4) and 240 μL of acetonitrile (containing 100 nM alprazolam, 200 nM caffeine and 100 nM tolbutamide), and the mixture was added to a new 96-well plate. 80 μL of the liquid was taken directly from each of the basal end of the A-B flow and the apical end of the B-A flow, and added together with 240 μL of acetonitrile (containing 100 nM alprazolam, 200 nM caffeine and 100 nM tolbutamide) to a new 96-well plate. The plates were vortexed at 1000 rpm for 10 min. The samples were centrifuged at 4000 rpm for 30 min. 100 μL of the supernatant was transferred to a new 96-well plate. All samples were analyzed by LC-MS/MS with 100 μL of pure water.
Data were calculated using Microsoft Excel and peak areas were calculated from the chromatograms. The apparent permeability coefficient (Papp) is in cm/s and is calculated using the following formula: […]
Papp is apparent permeability (cm/s×10^−6);
The outflow ratio can be determined by the following equation: […]

Regarding `CNC(=O)c1cc(F)c(-c2nc3cc(C)ccn3c2C[C@H]2CN(C(=O)OC)CCO2)c(F)c1` [BLU-5937, reference compound], the “V” value in data set [1] was 1.09 L/kg. Also, in data set [1] (male, rat, plasma, po), the Tmax amounted to 0.25 h and the half-life is 2.9 h. Moreover, in data set [1] (male, rat, po, plasma), the AUC(0-t) was 361 ng·h/mL and the Cmax is 151 ng/mL. The molecule further gave a Papp A→B at 10 μM in data set [2] (Caco-2, 10 μM test compound, apical to basal, pH 7.4) of 2.4 ×10⁻⁶ cm/s. In addition, the efflux ratio at 10 μM in data set [2] (Caco-2, Papp (B-A)/Papp (A-B), read-out: Outflow ratio) amounted to 1.2.
